Paper PMC11589570, “Critical assessment of LC3/GABARAP ligands used for degrader development and ligandability of LC3/GABARAP binding pockets” (Nature Communications, 2024)
“And” between values parts separate entries of the source, which are not always exact repeats. Equal values may be shown once.

Key:
[1] = molecular target: GABARAP (Homo sapiens, UniProt O95166); experiment: FP assay with Cy5-labelled p62 LIR tracer (protein titration and tracer displacement); type: binding; conditions: for normalized FP signal, p62 LIR tracer displacement: GABARAP, listed as AN1; for compound titration GABARAP (displacement curve, FP signal): two replicate columns per compound
[2] = test system: RPE1 cells; experiment: Cell growth assay (IncuCyte confluence over 72 h); type: cell-based; conditions: for RPE1 cell growth: listed as AN1
How it was run: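 Phase confluence (% area covered by cells) imaged every 2 h for 72 h after compound addition; cells in DMEM/10% FBS, seeded 24 h before treatment. Controls were 0.1% DMSO, 250 nM Torin1 and 200 ng/mL Bafilomycin (final). Each point averages three wells.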

[3] = molecular target: GABARAPL1 (Homo sapiens, UniProt Q9H0R8); experiment: FP assay with Cy5-labelled p62 LIR tracer (protein titration and tracer displacement); type: binding; conditions: for normalized FP signal, p62 LIR tracer displacement: GABARAPL1; for compound titration GABARAPL1 (displacement curve, FP signal): two replicate columns per compound; for FP tracer displacement curve signal (compound titration): duplicate values
[4] = molecular target: GABARAPL2 (Homo sapiens, UniProt P60520); experiment: as above; conditions: GABARAPL2
[5] = molecular target: LC3C (Homo sapiens, UniProt Q9BXW4); experiment: as above; type: binding; conditions: for normalized FP signal, p62 LIR tracer displacement: LC3C, listed as AN1; for compound titration LC3C (displacement curve, FP signal): two replicate columns per compound
[6] = log10 concentration [M] -3.82391
[7] = log10 concentration [M] -4.1549
[8] = log10 concentration [M] -4.60206
[9] = log10 concentration [M] -5.30103
[10] = log10 concentration [M] -5.69897
[11] = log10 concentration [M] -6.22185
[12] = log10 concentration [M] -6.69897
[13] = log10 concentration [M] -7.30103
[14] = log10 concentration [M] -7.79588
[15] = log10 concentration [M] -8.08092
[16] = log10 concentration [M] -3.82391, listed as AN1
[17] = log10 concentration [M] -4.1549, listed as AN1
[18] = log10 concentration [M] -4.60206, listed as AN1
[19] = log10 concentration [M] -5.69897, listed as AN1
[20] = log10 concentration [M] -6.22185, listed as AN1
[21] = log10 concentration [M] -6.69897, listed as AN1
[22] = log10 concentration [M] -7.30103, listed as AN1
[23] = log10 concentration [M] -7.79588, listed as AN1
[24] = log10 concentration [M] -8.08092, listed as AN1

Sequence of GABARAPL2 (P60520 whole entry): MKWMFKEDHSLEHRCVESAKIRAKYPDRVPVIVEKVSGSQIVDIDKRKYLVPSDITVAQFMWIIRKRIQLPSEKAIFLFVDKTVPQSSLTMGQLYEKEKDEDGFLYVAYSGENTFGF
Sequence of LC3C (Q9BXW4 1-126): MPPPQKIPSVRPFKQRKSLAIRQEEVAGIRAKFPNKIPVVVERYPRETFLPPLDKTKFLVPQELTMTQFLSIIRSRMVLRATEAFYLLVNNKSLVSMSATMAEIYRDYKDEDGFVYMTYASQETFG
Sequence of GABARAPL1 (Q9H0R8 whole entry): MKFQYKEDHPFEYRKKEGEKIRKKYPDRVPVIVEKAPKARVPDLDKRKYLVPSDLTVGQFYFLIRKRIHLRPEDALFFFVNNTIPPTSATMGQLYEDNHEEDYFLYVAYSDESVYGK
Sequence of GABARAP (O95166 1-116): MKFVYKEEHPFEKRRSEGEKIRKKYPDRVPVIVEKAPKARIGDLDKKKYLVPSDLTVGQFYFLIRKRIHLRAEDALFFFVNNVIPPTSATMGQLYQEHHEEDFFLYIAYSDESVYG

O=C1Nc2ccc(Br)cc2C1=Cc1cc(O)c(O)c(Br)c1 [compound 1] was tested, and the “normalized FP signal, p62 LIR tracer displacement” value (from here on “normalized FP signal”) [1, 6] was 88.1034 and 91.0345, the “normalized FP signal” value [1, 7] was 88.6207 and 92.2414 and the “normalized FP signal” value [1, 8] was 90.1724 and 94.8276. The “normalized FP signal” value ([1]; log10 concentration [M] -5) was 93.7931 and 97.069, the “normalized FP signal” value [1, 9] was 96.0345 and 95.3448 and the “normalized FP signal” value [1, 10] was 85 and 92.069. For the same molecule, the “normalized FP signal” value [1, 11] was 93.4483 and 97.5862, the “normalized FP signal” value [1, 12] was 98.1034 and 94.3103 and the “normalized FP signal” value [1, 13] was 97.4138 and 96.5517. The “normalized FP signal” value [1, 14] was 92.4138 and 89.8276, the “normalized FP signal” value [1, 15] was 89.1379 and 97.2414 and the “compound titration GABARAP (displacement curve, FP signal)” value [1, 6] was 88.1034 and 91.0345. For the same molecule, the “compound titration GABARAP (displacement curve, FP signal)” value [1, 7] was 88.6207 and 92.2414, the “compound titration GABARAP (displacement curve, FP signal)” value [1, 8] was 90.1724 and 94.8276 and the “compound titration GABARAP (displacement curve, FP signal)” value ([1]; log10 concentration [M] -5) was 93.7931 and 97.069. For the same molecule, the “compound titration GABARAP (displacement curve, FP signal)” value [1, 9] was 96.0345 and 95.3448, the “compound titration GABARAP (displacement curve, FP signal)” value [1, 10] was 85 and 92.069 and the “compound titration GABARAP (displacement curve, FP signal)” value [1, 11] was 93.4483 and 97.5862. For the same molecule, the “compound titration GABARAP (displacement curve, FP signal)” value [1, 12] was 98.1034 and 94.3103, the “compound titration GABARAP (displacement curve, FP signal)” value [1, 13] was 97.4138 and 96.5517 and the “compound titration GABARAP (displacement curve, FP signal)” value [1, 14] was 92.4138 and 89.8276. For the same molecule, the “compound titration GABARAP (displacement curve, FP signal)” value [1, 15] was 89.1379 and 97.2414, the RPE1 cell growth ([2]; 100 nM, 10 h) was 30 and 17 and 26 and the RPE1 cell growth ([2]; 100 nM, 12 h) was 33 and 18 and 27. For the same molecule, the RPE1 cell growth ([2]; 100 nM, 14 h) was 37 and 19 and 27, the RPE1 cell growth ([2]; 100 nM, 16 h) was 37 and 22 and 30 and the RPE1 cell growth ([2]; 100 nM, 18 h) was 41 and 22 and 30. The RPE1 cell growth ([2]; 100 nM, 20 h) was 42 and 22, the RPE1 cell growth ([2]; 500 nM, 10 h) was 40 and 23 and 25 and the RPE1 cell growth ([2]; 500 nM, 12 h) was 43 and 24 and 26. For the same molecule, the RPE1 cell growth ([2]; 500 nM, 14 h) was 44 and 25 and 28, the RPE1 cell growth ([2]; 500 nM, 16 h) was 47 and 29 and 30 and the RPE1 cell growth ([2]; 500 nM, 18 h) was 49 and 29 and 32. For the same molecule, the RPE1 cell growth ([2]; 1 uM, 10 h) was 23 and 42 and 25, the RPE1 cell growth ([2]; 1 uM, 12 h) was 25 and 45 and 28 and the RPE1 cell growth ([2]; 1 uM, 14 h) was 26 and 48 and 29. The RPE1 cell growth ([2]; 1 uM, 16 h) was 29 and 49 and 32, the RPE1 cell growth ([2]; 1 uM, 18 h) was 30 and 50 and 34 and the RPE1 cell growth ([2]; 1 uM, 20 h) was 32. The RPE1 cell growth ([2]; 3 uM, 10 h) was 43 and 32 and 29, the RPE1 cell growth ([2]; 3 uM, 12 h) was 45 and 37 and 31 and the RPE1 cell growth ([2]; 3 uM, 14 h) was 48 and 37 and 32. For the same molecule, the RPE1 cell growth ([2]; 3 uM, 16 h) was 50 and 39 and 35, the RPE1 cell growth ([2]; 3 uM, 18 h) was 53 and 40 and 36 and the RPE1 cell growth ([2]; 3 uM, 20 h) was 52 and 41 and 37. For the same molecule, the RPE1 cell growth ([2]; 5 uM, 10 h) was 47 and 35, the RPE1 cell growth ([2]; 5 uM, 12 h) was 49 and 38 and the RPE1 cell growth ([2]; 5 uM, 14 h) was 53 and 38 and 42. For the same molecule, the RPE1 cell growth ([2]; 5 uM, 16 h) was 55 and 41 and 44, the RPE1 cell growth ([2]; 5 uM, 18 h) was 57 and 42 and 46 and the RPE1 cell growth ([2]; 5 uM, 20 h) was 56 and 45 and 49. The RPE1 cell growth ([2]; 10 uM, 10 h) was 47 and 35 and 32, the RPE1 cell growth ([2]; 10 uM, 12 h) was 51 and 37 and 33 and the RPE1 cell growth ([2]; 10 uM, 14 h) was 53 and 39 and 36. The RPE1 cell growth ([2]; 10 uM, 16 h) was 55 and 43 and 35, the RPE1 cell growth ([2]; 10 uM, 18 h) was 56 and 38 and 37 and the RPE1 cell growth ([2]; 10 uM, 20 h) was 54 and 41 and 38. The “effect on cell growth (confluence)” value ([2]; RPE1, 72 h) was “high dosage effects”, the “normalized FP signal” value [3, 16] was 89.2857 and 90 and the “normalized FP signal” value [3, 17] was 93.2857 and 94.1429. The “normalized FP signal” value [3, 18] was 92.8571 and 97.1429, the “normalized FP signal” value ([3]; log10 concentration [M] -5, listed as AN1) was 95.2857 and 96.7143 and the “normalized FP signal” value [3, 9] was 97.7143. The “normalized FP signal” value [3, 19] was 89.4286 and 95, the “normalized FP signal” value [3, 20] was 93.8571 and 97.2857 and the “normalized FP signal” value [3, 21] was 97.1429 and 99.8571. For the same molecule, the “normalized FP signal” value [3, 22] was 96 and 96.1429, the “normalized FP signal” value [3, 23] was 97.7143 and 93.4286 and the “normalized FP signal” value [3, 24] was 99. For the same molecule, the “compound titration GABARAPL1 (displacement curve, FP signal)” value (shortened to “compound titration GABARAPL1”) [3, 6] was 89.2857 and 90, the “compound titration GABARAPL1” value [3, 7] was 93.2857 and 94.1429 and the “compound titration GABARAPL1” value [3, 8] was 92.8571 and 97.1429. The “compound titration GABARAPL1” value ([3]; log10 concentration [M] -5) was 95.2857 and 96.7143, the “FP tracer displacement curve signal (compound titration)” value (“FP tracer displacement curve signal” for short) [3, 19] was 89.4286 and 95 and the “FP tracer displacement curve signal” value [3, 20] was 93.8571 and 97.2857. The “FP tracer displacement curve signal” value [3, 21] was 97.1429 and 99.8571, the “FP tracer displacement curve signal” value [3, 22] was 96 and 96.1429 and the “FP tracer displacement curve signal” value [3, 23] was 97.7143 and 93.4286. For the same molecule, the “FP tracer displacement curve signal” value [3, 24] was 99, the “normalized FP signal” value [4, 16] was 91.2 and 81.6 and the “normalized FP signal” value [4, 17] was 91.2 and 92.8. For the same molecule, the “normalized FP signal” value [4, 18] was 92.8 and 98.4, the “normalized FP signal” value ([4]; log10 concentration [M] -5) was 109.2 and the “normalized FP signal” value ([4]; log10 concentration [M] -5.30103, listed as AN1) was 91.6 and 94.8. The “normalized FP signal” value [4, 19] was 82.8 and 89.2, the “normalized FP signal” value [4, 11] was 88 and the “normalized FP signal” value [4, 20] was 104.4. For the same molecule, the “normalized FP signal” value [4, 12] was 89.6, the “normalized FP signal” value [4, 13] was 94 and the “normalized FP signal” value [4, 23] was 90.4 and 93.2. For the same molecule, the “normalized FP signal” value [4, 15] was 93.6, the “normalized FP signal” value [5, 6] was 79.6 and 85.8 and the “normalized FP signal” value [5, 7] was 89.2 and 87.8. For the same molecule, the “normalized FP signal” value [5, 8] was 89.4 and 94.4, the “normalized FP signal” value ([5]; log10 concentration [M] -5) was 89.6 and 94 and the “normalized FP signal” value [5, 9] was 93 and 97.8. The “normalized FP signal” value [5, 10] was 84.2 and 88.6, the “normalized FP signal” value [5, 11] was 82.6 and 92 and the “normalized FP signal” value [5, 12] was 93.4 and 98.2. The “normalized FP signal” value [5, 13] was 96.4, the “normalized FP signal” value [5, 14] was 91.2 and 92.8 and the “normalized FP signal” value [5, 15] was 88.2 and 91.8. The “compound titration LC3C (displacement curve, FP signal)” value (“compound titration LC3C” below) [5, 6] was 79.6 and 85.8, the “compound titration LC3C” value [5, 7] was 89.2 and 87.8 and the “compound titration LC3C” value [5, 8] was 89.4 and 94.4. The “compound titration LC3C” value ([5]; log10 concentration [M] -5) was 89.6 and 94, the “compound titration LC3C” value [5, 9] was 93 and 97.8 and the “compound titration LC3C” value [5, 10] was 84.2 and 88.6. The “compound titration LC3C” value [5, 11] was 82.6 and 92, the “compound titration LC3C” value [5, 12] was 93.4 and 98.2 and the “compound titration LC3C” value [5, 13] was 96.4. For the same molecule, the “compound titration LC3C” value [5, 14] was 91.2 and 92.8 and the “compound titration LC3C” value [5, 15] was 88.2 and 91.8.
